Experimental data taken from PubChem BioAssay (NCI).
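Tested at 5 concentrations; 48 h exposure; 96-well plates; endpoints linearly interpolated, else capped at highest concentration. TGI denotes the concentration required for complete inhibition of growth.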

Key:
Assay in all cases: NCI anticancer screen, dose series, 48 h
SN12C renal = test system: SN12C renal
CCRF-CEM leukemia = test system: CCRF-CEM leukemia
KM12 colon = test system: KM12 colon
SK-MEL-5 melanoma = test system: SK-MEL-5 melanoma
HT29 colon = test system: HT29 colon
SF-539 CNS = test system: SF-539 CNS
SR leukemia = test system: SR leukemia
M14 melanoma = test system: M14 melanoma
HCT-116 colon = test system: HCT-116 colon
MOLT-4 leukemia = test system: MOLT-4 leukemia
NCI-H226 lung = test system: NCI-H226 lung
MDA-MB-231 breast = test system: MDA-MB-231 breast
NCI/ADR-RES ovarian = test system: NCI/ADR-RES ovarian
MDA-MB-435 = test system: MDA-MB-435
MCF7 breast = test system: MCF7 breast

O=C(O)c1ccc(C2COc3ccc(Cl)cc3C2)cc1 (stereo not drawn)
TGI (SN12C renal): > 100 µM
TGI (CCRF-CEM leukemia): > 100 µM
TGI (KM12 colon): > 100 µM
TGI (SK-MEL-5 melanoma): > 100 µM
TGI (HT29 colon): > 100 µM
TGI (SF-539 CNS): > 100 µM
TGI (SR leukemia): > 100 µM
TGI (M14 melanoma): > 100 µM
TGI (HCT-116 colon): > 100 µM
TGI (MOLT-4 leukemia): > 100 µM
TGI (NCI-H226 lung): > 100 µM

O=c1[nH]cc(-c2c[nH]c3ccccc23)nc1-c1c[nH]c2ccccc12
TGI (SN12C renal): 33.4 µM
TGI (MDA-MB-231 breast): 89.2 µM
TGI (KM12 colon): > 100 µM
TGI (SK-MEL-5 melanoma): 26.1 µM
TGI (SF-539 CNS): 55.5 µM
TGI (M14 melanoma): 28.1 µM
TGI (HCT-116 colon): 26.7 µM
TGI (NCI/ADR-RES ovarian): 49.8 µM
TGI (MDA-MB-435): 14 µM
TGI (MCF7 breast): 54.7 µM

C/C=C1\CN2CCc3c([nH]c4ccccc34)C2CC1C(=O)OC (stereo not drawn)
TGI (SN12C renal): > 322 µM
TGI (CCRF-CEM leukemia): > 322 µM
TGI (KM12 colon): > 322 µM
TGI (SK-MEL-5 melanoma): > 322 µM
TGI (HT29 colon): > 322 µM
TGI (SF-539 CNS): > 322 µM
TGI (SR leukemia): > 322 µM
TGI (HCT-116 colon): > 322 µM
TGI (MOLT-4 leukemia): > 322 µM
TGI (NCI-H226 lung): > 322 µM

CC(C)(C)OC(=O)NC(Cc1ccccc1)OCc1ccccc1 (stereo not drawn)
TGI (SN12C renal): 50.4 µM
TGI (MDA-MB-231 breast): 30.2 µM
TGI (KM12 colon): 37.4 µM
TGI (SK-MEL-5 melanoma): 31 µM
TGI (HT29 colon): 44.5 µM
TGI (SF-539 CNS): 39 µM
TGI (SR leukemia): > 100 µM
TGI (M14 melanoma): 39.7 µM
TGI (HCT-116 colon): 31.8 µM
TGI (MOLT-4 leukemia): 77.6 µM
TGI (NCI/ADR-RES ovarian): 70.7 µM
TGI (MDA-MB-435): 42.7 µM
TGI (MCF7 breast): 35.9 µM
TGI (NCI-H226 lung): 34.4 µM

CC(=O)C1C(=O)C(=O)N(c2cccc([N+](=O)[O-])c2)C1=O (stereo not drawn)
TGI (SN12C renal): > 100 µM
TGI (CCRF-CEM leukemia): > 100 µM
TGI (MDA-MB-231 breast): > 100 µM
TGI (KM12 colon): > 100 µM
TGI (SK-MEL-5 melanoma): > 100 µM
TGI (HT29 colon): > 100 µM
TGI (SF-539 CNS): > 100 µM
TGI (M14 melanoma): > 100 µM
TGI (HCT-116 colon): > 100 µM
TGI (MOLT-4 leukemia): > 100 µM
TGI (NCI/ADR-RES ovarian): > 100 µM
TGI (MDA-MB-435): > 100 µM
TGI (MCF7 breast): > 100 µM
TGI (NCI-H226 lung): > 100 µM

Cn1c(=O)c2c(nc3n2CC(=O)N3CCCCl)n(C)c1=O
TGI (SN12C renal): > 100 µM
TGI (CCRF-CEM leukemia): > 100 µM
TGI (MDA-MB-231 breast): > 100 µM
TGI (KM12 colon): > 100 µM
TGI (SK-MEL-5 melanoma): > 100 µM
TGI (HT29 colon): > 100 µM
TGI (M14 melanoma): > 100 µM
TGI (HCT-116 colon): > 100 µM
TGI (MOLT-4 leukemia): > 100 µM
TGI (NCI/ADR-RES ovarian): > 100 µM
TGI (MDA-MB-435): > 100 µM
TGI (MCF7 breast): > 100 µM
TGI (NCI-H226 lung): > 100 µM

O=c1[nH]cc(COCCCO)c(=O)[nH]1
TGI (SN12C renal): > 100 µM
TGI (CCRF-CEM leukemia): > 100 µM
TGI (KM12 colon): > 100 µM
TGI (SK-MEL-5 melanoma): > 100 µM
TGI (HT29 colon): > 100 µM
TGI (SF-539 CNS): > 100 µM
TGI (SR leukemia): > 100 µM
TGI (M14 melanoma): > 100 µM
TGI (HCT-116 colon): > 100 µM
TGI (MOLT-4 leukemia): > 100 µM
TGI (NCI-H226 lung): > 100 µM

NC(N)=NCC[C@H](NC(=O)OCCCCCn1ccc(=O)[nH]c1=O)C(=O)O
TGI (SN12C renal): > 100 µM
TGI (CCRF-CEM leukemia): > 100 µM
TGI (MDA-MB-231 breast): > 100 µM
TGI (KM12 colon): > 100 µM
TGI (SK-MEL-5 melanoma): > 100 µM
TGI (HT29 colon): > 100 µM
TGI (SF-539 CNS): > 100 µM
TGI (HCT-116 colon): > 100 µM
TGI (MOLT-4 leukemia): > 100 µM
TGI (NCI/ADR-RES ovarian): > 100 µM
TGI (MDA-MB-435): > 100 µM
TGI (MCF7 breast): > 100 µM
TGI (NCI-H226 lung): > 100 µM

CO/C(=N\N=C\c1ccc(OC)c(OC)c1)c1ccncc1
TGI (SN12C renal): > 10 µM
TGI (CCRF-CEM leukemia): > 10 µM
TGI (MDA-MB-231 breast): > 10 µM
TGI (KM12 colon): > 10 µM
TGI (SK-MEL-5 melanoma): > 10 µM
TGI (SF-539 CNS): > 10 µM
TGI (SR leukemia): > 10 µM
TGI (M14 melanoma): > 10 µM
TGI (MOLT-4 leukemia): > 10 µM
TGI (NCI/ADR-RES ovarian): > 10 µM
TGI (MCF7 breast): > 10 µM
TGI (NCI-H226 lung): > 10 µM
